The text below walks through data of PubChem BioAssay AID588568 (The Scripps Research Institute Molecular Screening Center, 2011).

Where “and” joins values, the source holds several entries; their conditions need not be identical. Equal values may be shown once. Calls of active or inactive are those of the source. How the calls were made is not given here. Where only a bound is given, the exact number is not on record here.

For this assay, the target named is Melanin-concentrating hormone receptor 1 (Homo sapiens) (UniProt Q99705). Put plainly: MCHR1 antagonists, dose response, counter-screen for GPR7 antagonist project, cell-based, fluorescence, set 4 (AID 588568). The note with it: MCHR1-expressing cells, fluorescence antagonist assay.

The term IC50 denotes the point on the concentration scale where inhibition reaches its midpoint. Consider `COc1ccc(Oc2c(Cl)cnn(-c3ccc(-c4ccccc4)cc3)c2=O)cc1`, for which, where the note is “run 1”, the IC50 is 7.26 µM and 4.63 µM.

In the case of `COc1ccc(Oc2c(Cl)cnn(Cc3ccc(C)c4ccccc34)c2=O)cc1`, the IC50 result (run 1) is “inactive”.

As to `COCn1ncc(Cl)c(Oc2ccc(OC)cc2)c1=O`, the IC50 (run 1) is > 20 µM (inactive).

Consider `COc1ccc(Oc2c(Cl)cnn(Cc3ccc(Cl)cc3)c2=O)cc1`, for which, under “run 1”, the half-inhibitory concentration (IC50) was 3.2 µM.

With `Cc1cc(C)cc(Cn2ncc(Cl)c(Oc3ccc(CO)cc3)c2=O)c1`, the IC50 (run 1) is 3.02 µM.

As to `COc1ccc(Oc2c(C)cnn(Cc3cccc4ccccc34)c2=O)cc1`, the IC50 (run 1) is 5.41 µM.

Regarding `C=Cc1cnn(Cc2cccc3ccccc23)c(=O)c1Oc1ccc(OC)cc1`, the half-maximal inhibitory concentration (IC50) (run 1) is 1.69 µM.

On to `COc1ccc(Cn2ncc(Cl)c(Oc3ccc(OC)cc3)c2=O)cc1`, for which the IC50 entry (run 1) is “inactive”.

On to `COc1ccc(Oc2c(Cl)cnn(-c3ccc(OC(C)C)cc3)c2=O)cc1`, for which the concentration for half-maximal inhibition (IC50) (run 1) is 6.5 µM.

For the compound `NCc1ccc(Oc2c(Cl)cnn(Cc3cccc4ccccc34)c2=O)cc1`, where the note is “run 1”, the IC50 result is “inactive”.

For the compound `COc1ccc(Oc2c(Cl)cnn(CC3CCCCC3)c2=O)cc1`, the IC50 result (run 1) is “inactive”.

`CCOc1ccc(Oc2c(N3CCCCC3)cnn(Cc3cccc4ccccc34)c2=O)cc1`: where the note is “run 1, at 20 µM (top of the series)”, the inhibition entry was “inactive”.

`COc1ccc(Oc2c(Cl)cnn(-c3ccc(-c4ccc(C)cc4)cc3)c2=O)cc1`: the IC50 (run 1) was > 20 µM (inactive).

`CCOc1ccc(Oc2c(NC(=O)OC(C)(C)C)cnn(Cc3cccc4ccccc34)c2=O)cc1`: the IC50 (run 1) was > 20 µM (inactive).

For the compound `COc1ccc(Oc2c(Cl)cnn(CC(=O)c3ccc(C)cc3C)c2=O)cc1`, under “run 1”, the concentration for half-maximal inhibition (IC50) is 2.64 µM.

As for `COc1ccc(Oc2c(Cl)c(C)nn(Cc3ccccc3C)c2=O)cc1`, the IC50 (run 1) was 3.89 µM.

As to `CCc1ccc(Oc2c(Cl)cnn(C3c4ccccc4-c4ccccc43)c2=O)cc1`, where the note is “run 1”, the IC50 was > 20 µM (inactive).

On to `COc1ccc(Oc2c(Cl)cnn(-c3ccc(C4=CCCCC4)cc3)c2=O)cc1`, for which the concentration for half-maximal inhibition (IC50) (run 1) was 5.13 µM.

`COc1ccc(Oc2c(Cl)cnn(Cc3ccc(F)cc3Cl)c2=O)cc1`: the IC50 (run 1) is 4.16 µM.

As to `CC(C)Oc1ccc(Oc2c(Cl)cnn(Cc3cccc4ccccc34)c2=O)cc1`, the IC50 result (run 1) is “inactive”.

On to `COc1ccc(Oc2c(Cl)cnn(C3=Nc4ccccc4Oc4ccccc43)c2=O)cc1`, for which, where the note is “run 1”, the IC50 is 2.68 µM.

`COc1ccc(Oc2c(Cl)cnn(Cc3c(C)cc(C)cc3C)c2=O)cc1`: the IC50 (run 1) was 7.5 µM.

For the compound `CC(C)c1ccc(Oc2c(Cl)cnn(Cc3cccc4ccccc34)c2=O)cc1`, for the setting “run 1”, the half-maximal inhibitory concentration (IC50) was 8.08 µM.

On to `COc1ccc(Oc2c(Cl)cnn(-c3ccc4ccccc4c3)c2=O)cc1`, for which, where the note is “run 1”, the IC50 is 0.438 µM.

As for `COc1ccc(Nc2ccnn(Cc3cccc4ccccc34)c2=O)cc1`, for the setting “run 1”, the IC50 is > 20 µM (inactive).

In the case of `Cc1cc(CN2CCCCC2C(=O)N2CCN(c3ccc([N+](=O)[O-])cc3)CC2)ccc1Cl` (stereo not drawn), under “run 1”, the IC50 was 1.42 µM.

Take `CCOc1ccc(Oc2c(N)cnn(Cc3cccc4ccccc34)c2=O)cc1`: the half-inhibitory concentration (IC50) (run 1) is 5.02 µM.

Turning to `COc1ccc(Oc2c(Cl)cnn(Cc3ccc(Cl)c(C)c3)c2=O)cc1`, for the setting “run 1”, the IC50 result was “inactive”.

For the compound `COc1ccc(Oc2c(Cl)cnn(C(CO)c3ccccc3)c2=O)cc1` (stereo not drawn), the IC50 entry (run 1) is “inactive”.

As to `O=Cc1ccc(Oc2c(Cl)cnn(Cc3cccc4ccccc34)c2=O)cc1`, the IC50 (run 1) is 7.33 µM.

For the compound `O=c1c(Oc2ccc(CO)cc2)c(Cl)cnn1Cc1cccc2ccccc12`, the IC50 (run 1) was 6.75 µM.

On to `Cc1cc(C)cc(-n2ncc(Cl)c(Oc3ccc(Oc4ccccc4)cc3)c2=O)c1`, for which the IC50 (run 1) is 2.24 µM.

Turning to `O=C(c1cnn(-c2ccc(Cl)cc2)c1C(F)(F)F)N1CCN(c2ccc([N+](=O)[O-])cc2)CC1`, the IC50 (run 1) was 1.64 µM.

With `COc1ccc(Oc2c(Cl)cnn(C3=Nc4ccccc4Sc4ccccc43)c2=O)cc1`, for the setting “run 1”, the IC50 was > 20 µM (inactive).

In the case of `COc1ccc(Oc2c(-c3ccccc3C)c(-c3ccccc3C)nn(Cc3ccccc3C)c2=O)cc1`, the IC50 entry (run 1) is “inactive”.

As to `COc1ccc(Oc2c(Cl)cnn(C(C(=O)OC(C)C)c3ccccc3Cl)c2=O)cc1` (stereo not drawn), the IC50 (run 1) is > 11.5 µM (inactive).

`COc1ccc(Oc2c(Br)nn(-c3cccc(C)c3)c(=O)c2Oc2ccc(OC)cc2)cc1`: the IC50 (run 1) is 1.66 µM.

Consider `Cc1cc(C)cc(Cn2[nH]cc(Oc3ccc(CO)cc3)c(=O)c2=O)c1`, for which the concentration for half-maximal inhibition (IC50) (run 1) was 2.32 µM.

As to `CC(C)c1ccc(-n2ncc(Cl)c(Oc3ccc(CO)cc3)c2=O)cc1`, the IC50 (run 1) is 4.73 µM.

Turning to `COc1ccc(Oc2c(Cl)cnn(-c3ccc(C(F)(F)F)cc3)c2=O)cc1`, the IC50 was 9.6 µM (run 1) and 9.81 µM (run 2).

Consider `COc1ccc(Oc2c(Cl)cnn(Cc3ccc4c(c3)OCO4)c2=O)cc1`, for which the half-maximal inhibitory concentration (IC50) (run 1) was 7.57 µM.

Regarding `COc1ccccc1CNC(=O)c1cnn(-c2ccc(Cl)cc2)c1C(F)(F)F`, the IC50 (run 1) was 7.23 µM.

For `COc1ccc(Oc2c(Cl)cnn(Cc3ccc(Cl)cc3Cl)c2=O)cc1`, the IC50 (run 1) is 1.45 µM.

On to `C=Cc1ccc(Cn2ncc(Cl)c(Oc3ccc(OC)cc3)c2=O)cc1`, for which the half-inhibitory concentration (IC50) (run 1) was 9.05 µM.

In the case of `COc1ccc(Oc2c(Cl)cnn(Cc3cccc(C)c3)c2=O)cc1`, the IC50 (run 1) was 4.7 µM.

With `Cc1cccc(Cn2ncc(Oc3ccc(CO)cc3)c(Cl)c2=O)c1`, the IC50 (run 1) was 5.16 µM.

Take `COc1ccc(Oc2c(Cl)c(-c3ccccc3C)nn(Cc3ccccc3C)c2=O)cc1`: the IC50 (run 1) is 1.79 µM.

In the case of `COc1ccc(Oc2cnn(Cc3cccc4ccccc34)c(=O)c2Br)cc1`, for the setting “run 1”, the IC50 is > 20 µM (inactive).

Take `Cc1cccc(Cn2ncc(Cl)c(Oc3ccc(CO)cc3)c2=O)c1`: the IC50 (run 1) was > 11.5 µM (inactive).

`CC(=O)OCc1ccc(Oc2c(Cl)cnn(Cc3cccc4ccccc34)c2=O)cc1`: the IC50 (run 1) was 6 µM.

`COc1ccc(Oc2c(Cl)cnn(-c3ccc(C)c(C)c3)c2=O)cc1`: the IC50 (run 1) is 9.47 µM and the 50% inhibitory concentration (IC50) (run 2) is 3.99 µM.

As to `COc1ccc(Oc2c(Cl)c(OC)nn(-c3cccc(C)c3)c2=O)cc1`, the IC50 (run 1) was 8.55 µM.

Turning to `COc1ccc(Oc2c(Cl)cnn(Cc3ccc(-c4ccccc4)cc3)c2=O)cc1`, where the note is “run 1”, the IC50 was > 20 µM (inactive).

`COc1ccc(Oc2c(C)c(C)nn(Cc3ccccc3C)c2=O)cc1`: under “run 1”, the IC50 was 7.31 µM.

Consider `CCOc1ccc(Oc2ccnn(Cc3cccc4ccccc34)c2=O)cc1`, for which, under “run 1”, the half-maximal inhibitory concentration (IC50) is 4.6 µM.

As to `COc1ccc(Oc2c(Cl)cnn(C(C(=O)OCCC3CCCC3)c3ccccc3Cl)c2=O)cc1` (stereo not drawn), the IC50 (run 1) is > 20 µM (inactive).

On to `CCOc1ccc(Cn2ncc(Cl)c(Oc3ccc(OC)cc3)c2=O)cc1C#N`, for which the 50% inhibitory concentration (IC50) (run 1) is 9.37 µM.

On to `COc1ccc(Oc2c(Cl)cnn(Cc3ccc(Br)c4ccccc34)c2=O)cc1`, for which the IC50 (run 1) was > 20 µM (inactive).

As for `COc1ccc(Oc2c(Cl)cnn(C(COC(C)=O)c3cccc4ccccc34)c2=O)cc1` (stereo not drawn), the IC50 (run 1) was > 20 µM (inactive).

For the compound `CCCCOC(=O)C(c1ccccc1Cl)n1ncc(Cl)c(Oc2ccc(OC)cc2)c1=O` (stereo not drawn), where the note is “run 1”, the IC50 result is “inactive”.

In the case of `COc1ccc(Oc2ccn(-c3ccc(C)cc3)c(=O)c2Cl)cc1`, the concentration for half-maximal inhibition (IC50) (run 1) is 2.79 µM.

Turning to `COc1ccc(Oc2c(Cl)cnn(-c3nc4ccccc4c4ccccc34)c2=O)cc1`, the IC50 (run 1) was > 20 µM (inactive).

Turning to `COc1ccc(Oc2c(Cl)cnn(C(c3ccccc3)c3c(C)noc3C)c2=O)cc1` (stereo not drawn), the IC50 (run 1) was > 20 µM (inactive).

With `COC(=O)c1ccc(Oc2c(Cl)cnn(Cc3cccc4ccccc34)c2=O)cc1`, the IC50 (run 1) was > 20 µM (inactive).

On to `COc1ccc(Oc2c(Cl)cnn(-c3ccccc3)c2=O)cc1`, for which the IC50 result (run 1) was “inactive”.

With `O=c1c(Oc2ccc(CCl)cc2)c(Cl)cnn1Cc1cccc2ccccc12`, for the setting “run 1”, the concentration for half-maximal inhibition (IC50) was 7.92 µM.
